# What was measured:
# [1] = mRNA recovery, entrapment and retention by Ribogreen assay; format: physicochemical; settings: mRNA-aNPs containing the polyvalent material; for Retention of mRNA: retention = recovery x entrapment
# Method: The Quant-iT RiboGreen assay (Thermo Fisher) was used to quantify the amount of siRNA loaded inside the formulated particles. The assay was performed using a black 96-well plate. The formulation sample with a theoretical siRNA concentration of 133.3 μg/mL, was diluted 200 times in TE buffer (10 mM Tris-HCl, 1 mM, EDTA, pH 7.5 in DEPC-treated water) and with a TE buffer containing 2% Triton™ X-100, in a black 96-well plate to a total volume of 100 μl. The Triton detergent will disrupt the lipid-based nanoparticles; therefore, all siRNA (retained plus unretained) becomes accessible for the Quant-iT RiboGreen reagent. Controls of siRNA of known concentration (28.6 μg/mL) were diluted 53.3 times in both TE buffer and TE buffer containing 2% Triton in a 96-well plate to a total volume of 100 μl. Next, RiboGreen reagent was diluted 200 times with TE buffer and with TE buffer containing Triton. 100 μl of this dilution was added to each well containing sample or control to bring the total volume in the plate to 200 μl. Subsequently, the samples' fluorescence was measured on a Tecan Spark® microplate reader at an excitation wavelength of 480 nm and emission wavelength of 520 nm.
# This was done in a similar way as described for determining the siRNA encapsulation efficiency.
# RAW 264.7 cell line = assay: MTS cytotoxicity assay; format: cell-based; settings: RAW 264.7 cell line exposed to siRNA-aNPs with increasing amounts of the polyvalent molecule (FIG. 10)
# Method: MTS assays were carried out on multiple apolipoprotein nanoparticles (aNPs) of the invention. These assays were executed in line with protocols that are known in the art.
# C57BL/6 mice = assay: In vivo Firefly luciferase expression; settings: 0.5 mg/kg Firefly luciferase mRNA in aNP, bolus injection, 16 hours, two animals (FIG. 16)
# Method: After 16 hours, the animals were sacrificed and the liver, spleen and femur collected. Organs were processed to yield single cell suspensions. 1/10th of the liver was cut into small pieces, incubated for 15 min, 37° C., 50 RPM with 5 mL liberase solution. Next, the digested liver was put through a 70 μm strainer and collected in a 50 mL falcon tube. After washing with 1×PBS, the cells was resuspended in 15 mL 1×PBS. 1/10th of the spleen was cut into small pieces and put through a 70 μm strainer and collected in a 50 mL falcon tube. After washing with 1×PBS, 1 mL of lysis buffer (BD Pharm Lyse™, cat #555899, diluted 10 times in diH2O) was added and incubated for 4 minute at room temperature. The cells were washed with 1×PBS and resuspended in 15 mL 1×PBS. Both ends of the femur were broken. The bone marrow cells were flushed from the inside of the bone with 10 mL 1×PBS through a 70 μm strainer and collected in a 50 mL falcon tube. The cells were centrifugated and 1 mL lysis buffer (BD Pharm Lyse™, cat #555899, diluted 10 times in diH2O) was added to the pellet and incubated for 1 minute at room temperature. […] All cell suspensions were counted and 500000 cells were seeded in a V-bottom plate. […] 40 μL was transferred to a white 96-well plate and luminescence was measured using the following settings: Settle time: 1000 ms; Integration time: 500 ms; Open filter.
# [2] = formulation for in vitro experiment (Table S8)
# [3] = formulation for in vivo experiment (Table S8)
structure (smiles),measurement,setting,value
"CCCCCCCCOC(=O)CCN(CCCN(CCCCN(CCCN(CCC(=O)OCCCCCCCC)CCC(=O)OCCCCCCCC)CCCN(CCC(=O)OCCCCCCCC)CCC(=O)OCCCCCCCC)CCCN(CCC(=O)OCCCCCCCC)CCC(=O)OCCCCCCCC)CCC(=O)OCCCCCCCC [Example A2, G1-ACR-nC8-8]",Entrapment of mRNA,[1]; [2],87%
same,Recovery of mRNA,[1]; [2],27%
same,Retention of mRNA,[1]; [2],23%
same,Entrapment of mRNA,[1]; [3],88%
same,Recovery of mRNA,[1]; [3],57%
same,Retention of mRNA,[1]; [3],50%
same,cytotoxicity (MTS assay),RAW 264.7 cell line,do not exercise cytotoxicity
same,"Luminescence intensity of single cell suspensions from liver, spleen and bone marrow (tissue targeting)",C57BL/6 mice,target spleen and bone marrow tissue efficiently
